Source: ChEMBL document CHEMBL4007428, “Modulating the selectivity of matriptase-2 inhibitors with unnatural amino acids” (Eur J Med Chem, 2017)

Assays:
[1] = target: T1, Transmembrane protease serine 6 (Homo sapiens, UniProt Q8IU80); test: Inhibition of recombinant human C-terminal V5-His-tagged matriptase-2 expressed in Drosophila S2 cells using Boc-Gln-Ala-ArgAMC as substrate measured for 1200 mins by fluorescence assay
T1 sequence (Q8IU80 whole entry): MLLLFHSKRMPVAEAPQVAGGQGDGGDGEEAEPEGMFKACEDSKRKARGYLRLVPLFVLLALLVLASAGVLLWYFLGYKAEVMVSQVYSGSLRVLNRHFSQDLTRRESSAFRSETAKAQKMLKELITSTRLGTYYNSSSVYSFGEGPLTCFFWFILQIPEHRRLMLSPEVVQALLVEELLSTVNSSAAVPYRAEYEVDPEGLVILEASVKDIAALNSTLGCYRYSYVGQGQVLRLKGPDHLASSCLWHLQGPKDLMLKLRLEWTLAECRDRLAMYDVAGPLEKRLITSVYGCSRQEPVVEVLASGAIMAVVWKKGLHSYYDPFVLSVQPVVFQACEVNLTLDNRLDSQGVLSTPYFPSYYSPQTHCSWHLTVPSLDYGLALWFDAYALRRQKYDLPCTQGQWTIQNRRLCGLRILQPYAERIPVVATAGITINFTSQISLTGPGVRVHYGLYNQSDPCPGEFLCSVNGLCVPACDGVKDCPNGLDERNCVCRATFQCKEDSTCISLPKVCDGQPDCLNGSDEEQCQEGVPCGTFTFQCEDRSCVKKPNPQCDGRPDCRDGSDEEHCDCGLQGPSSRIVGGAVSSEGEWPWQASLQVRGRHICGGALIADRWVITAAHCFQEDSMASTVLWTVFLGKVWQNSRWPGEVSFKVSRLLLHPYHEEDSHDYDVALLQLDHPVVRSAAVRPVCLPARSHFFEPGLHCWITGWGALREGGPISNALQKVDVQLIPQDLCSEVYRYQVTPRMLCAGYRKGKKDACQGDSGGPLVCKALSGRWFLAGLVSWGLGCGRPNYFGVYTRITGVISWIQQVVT

[2] = target: T2, Suppressor of tumorigenicity 14 protein (Homo sapiens, UniProt Q9Y5Y6)
T2 sequence (Q9Y5Y6 whole entry): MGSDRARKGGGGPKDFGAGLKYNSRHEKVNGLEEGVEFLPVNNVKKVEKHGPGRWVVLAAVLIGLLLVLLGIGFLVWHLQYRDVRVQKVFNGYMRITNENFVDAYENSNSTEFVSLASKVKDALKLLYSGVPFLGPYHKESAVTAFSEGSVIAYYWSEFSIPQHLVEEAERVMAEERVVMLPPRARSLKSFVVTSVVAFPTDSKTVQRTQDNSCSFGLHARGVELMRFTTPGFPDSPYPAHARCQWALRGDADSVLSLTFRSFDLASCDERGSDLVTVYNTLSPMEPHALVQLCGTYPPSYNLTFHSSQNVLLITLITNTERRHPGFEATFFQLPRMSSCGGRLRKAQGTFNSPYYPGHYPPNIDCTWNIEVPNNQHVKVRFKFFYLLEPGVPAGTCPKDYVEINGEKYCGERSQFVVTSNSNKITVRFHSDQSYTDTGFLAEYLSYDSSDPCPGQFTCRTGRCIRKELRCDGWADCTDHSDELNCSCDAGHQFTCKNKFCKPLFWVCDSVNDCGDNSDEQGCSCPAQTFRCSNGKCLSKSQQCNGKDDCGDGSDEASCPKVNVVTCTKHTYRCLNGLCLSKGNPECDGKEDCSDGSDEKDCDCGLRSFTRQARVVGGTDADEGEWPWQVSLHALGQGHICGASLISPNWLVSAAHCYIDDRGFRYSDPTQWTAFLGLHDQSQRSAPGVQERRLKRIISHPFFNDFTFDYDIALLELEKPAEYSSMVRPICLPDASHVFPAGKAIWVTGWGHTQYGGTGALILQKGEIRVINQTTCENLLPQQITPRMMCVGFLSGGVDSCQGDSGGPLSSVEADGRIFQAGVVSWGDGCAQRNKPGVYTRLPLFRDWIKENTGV
Description: Inhibition of recombinant human matriptase (596 to 855 residues) expressed in Escherichia coli using Boc-Gln-Ala-ArgAMC as substrate measured for 1200 mins by fluorescence assay

Homo sapiens = organism: Homo sapiens; test: Selectivity ratio of Ki for recombinant human matriptase (596 to 855 residues) expressed in Escherichia coli to Ki for recombinant human C-terminal V5-His-tagged matriptase-2 expressed in Drosophila S2 cells
[3] = Stability in mouse plasma assessed as parent compound remaining after 24 hrs; type: ADME, cell-free; settings: read-out: Stability
[4] = target: T3, Transmembrane protease serine 6 (Homo sapiens) (UniProt Q8IU80); test: Reversible inhibition of recombinant human C-terminal V5-His-tagged matriptase-2 expressed in Drosophila S2 cells assessed as dissociation half time using Boc-Gln-Ala-ArgAMC as substrate measured for 1200 mins by fluorescence assay
T3 sequence (whole entry): T1 sequence (Q8IU80 whole entry)

Ki [1]	Ki [2]	SMILES	Ratio Ki (Homo sapiens)	remaining at 24 h [3]	T1/2 [4]
2.1 nM	65 nM	CC(C)[C@H](NC(=O)[C@H](CCc1ccccc1)NC(=O)CCc1ccccc1)C(=O)N[C@@H](CCCNC(=N)N)C(=O)c1nc2ccccc2s1	31	–	–
3.5 nM	71 nM	CC(C)[C@H](NC(=O)[C@H](Cc1ccc(OCc2ccccc2)cc1)NC(=O)CCc1ccccc1)C(=O)N[C@@H](CCCNC(=N)N)C(=O)c1nc2ccccc2s1	20	–	–
3.1 nM	200 nM	C[C@H](O)[C@H](NC(=O)[C@H](CCc1ccccc1)NC(=O)CCc1ccccc1)C(=O)N[C@@H](CCCNC(=N)N)C(=O)c1nc2ccccc2s1	64	> 75%	–
7 nM	240 nM	CC(C)[C@@H](NC(=O)[C@H](CCc1ccccc1)NC(=O)CCc1ccccc1)C(=O)N[C@@H](CCCNC(=N)N)C(=O)c1nc2ccccc2s1	34	–	–
6 nM	39 nM	CC(C)[C@H](NC(=O)[C@H](Cc1ccc(O)cc1)NC(=O)CC12CC3CC(CC(C3)C1)C2)C(=O)N[C@@H](CCCNC(=N)N)C(=O)c1nc2ccccc2s1	6	–	–
5 nM	150 nM	CC[C@@H](C)[C@@H](NC(=O)[C@H](CCc1ccccc1)NC(=O)CCc1ccccc1)C(=O)N[C@@H](CCCNC(=N)N)C(=O)c1nc2ccccc2s1	30	–	–
5.3 nM	120 nM	C[C@@H](O)[C@H](NC(=O)[C@H](CCc1ccccc1)NC(=O)CCc1ccccc1)C(=O)N[C@@H](CCCNC(=N)N)C(=O)c1nc2ccccc2s1	23	–	–
6 nM	28 nM	CC(C)CCC(=O)NC(Cc1ccc(O)cc1)C(=O)N[C@H](C(=O)N[C@@H](CCCNC(=N)N)C(=O)c1nc2ccccc2s1)C(C)C (single isomer, unassigned)	5	–	–
690 nM	12000 nM	CC[C@H](C)[C@@H](NC(=O)[C@H](CCc1ccccc1)NC(=O)CCc1ccccc1)C(=O)N[C@@H](CCCNC(=N)N)C(=O)c1nc2ccccc2s1	17	–	–
1.74 nM	43 nM	CC(C)[C@H](NC(=O)C(Cc1ccc(O)cc1)NC(=O)CCc1ccccc1)C(=O)N[C@@H](CCCNC(=N)N)C(=O)c1nc2ccccc2s1 (single isomer, unassigned)	25	–	–

Second part, the molecule before the results:

SMILES	Ki [1]	Ki [2]	Ratio Ki (Homo sapiens)	remaining at 24 h [3]	T1/2 [4]
N=C(N)NCCC[C@H](NC(=O)[C@H](Cc1ccc(O)c(O)c1)NC(=O)C(Cc1ccc(O)cc1)NC(=O)[C@@H](N)Cc1ccc(O)cc1)C(=O)c1nc2ccccc2s1 (single isomer, unassigned)	5 nM	12 nM	2	–	–
CC(C)[C@H](NC(=O)[C@H](Cc1cccc(Cl)c1)NC(=O)[C@@H](N)Cc1ccc(O)cc1)C(=O)N[C@@H](CCCNC(=N)N)C(=O)c1nc2ccccc2s1	5 nM	34 nM	7	–	–
CC(C)(C)[C@H](NC(=O)[C@H](CCc1ccccc1)NC(=O)CCc1ccccc1)C(=O)N[C@@H](CCCNC(=N)N)C(=O)c1nc2ccccc2s1	560 nM	15000 nM	27	–	–
CC(C)[C@H](NC(=O)C(Cc1ccc(O)cc1)NC(=O)[C@@H](N)Cc1ccc(O)cc1)C(=O)N[C@@H](CCCNC(=N)N)C(=O)c1nc2ccccc2s1 (single isomer, unassigned)	–	–	12	0%	–
CC(C)[C@H](NC(=O)[C@H](Cc1cscn1)NC(=O)CCc1ccccc1)C(=O)N[C@@H](CCCNC(=N)N)C(=O)c1nc2ccccc2s1	0.4 to 1.2 nM	4 to 12 nM	10	> 75%	48 min
CC(C)C[C@H](NC(=O)[C@H](CCc1ccccc1)NC(=O)CCc1ccccc1)C(=O)N[C@@H](CCCNC(=N)N)C(=O)c1nc2ccccc2s1	5.2 nM	120 nM	23	–	–
CCC[C@H](NC(=O)[C@H](CCc1ccccc1)NC(=O)CCc1ccccc1)C(=O)N[C@@H](CCCNC(=N)N)C(=O)c1nc2ccccc2s1	2.3 nM	26 nM	11	–	–
CC(C)[C@H](NC(=O)[C@H](Cc1ccccc1)NC(=O)[C@@H](N)Cc1ccc(O)cc1)C(=O)N[C@@H](CCCNC(=N)N)C(=O)c1nc2ccccc2s1	9 nM	63 nM	7	–	–
N=C(N)NCCC[C@H](NC(=O)[C@H](Cc1c[nH]cn1)NC(=O)C(Cc1ccc(O)cc1)NC(=O)[C@@H](N)Cc1ccc(O)cc1)C(=O)c1nc2ccccc2s1 (single isomer, unassigned)	56 nM	48 nM	0.9	–	–
N=C(N)NCCC[C@H](NC(=O)[C@H](Cc1ccc(O)cc1)NC(=O)C(Cc1ccc(O)cc1)NC(=O)[C@@H](N)Cc1ccc(O)cc1)C(=O)c1nc2ccccc2s1 (single isomer, unassigned)	1.1 nM	7 nM	6	–	–
N=C(N)NCCC[C@H](NC(=O)[C@H](Cc1cccs1)NC(=O)C(Cc1ccc(O)cc1)NC(=O)[C@@H](N)Cc1ccc(O)cc1)C(=O)c1nc2ccccc2s1 (single isomer, unassigned)	6 nM	19 nM	3	–	–
N=C(N)NCCC[C@H](NC(=O)[C@H](Cc1ccc2ccccc2c1)NC(=O)C(Cc1ccc(O)cc1)NC(=O)[C@@H](N)Cc1ccc(O)cc1)C(=O)c1nc2ccccc2s1 (single isomer, unassigned)	5.3 nM	–	–	–	–
CC[C@@H](C)[C@H](NC(=O)[C@H](CCc1ccccc1)NC(=O)CCc1ccccc1)C(=O)N[C@@H](CCCNC(=N)N)C(=O)c1nc2ccccc2s1	2.6 nM	51 nM	20	–	–
CC[C@H](NC(=O)[C@H](CCc1ccccc1)NC(=O)CCc1ccccc1)C(=O)N[C@@H](CCCNC(=N)N)C(=O)c1nc2ccccc2s1	1.5 to 1.6 nM	20 to 21 nM	13	–	18 min
CC[C@H](C)[C@H](NC(=O)[C@H](CCc1ccccc1)NC(=O)CCc1ccccc1)C(=O)N[C@@H](CCCNC(=N)N)C(=O)c1nc2ccccc2s1	4 nM	230 nM	58	–	–
CC(C)[C@H](NC(=O)C(Cc1ccc(O)cc1)NC(=O)CCc1ccc(O)cc1)C(=O)N[C@@H](CCCNC(=N)N)C(=O)c1nc2ccccc2s1 (single isomer, unassigned)	1.2 to 2 nM	34 to 38 nM	17	40%	24 min
N=C(N)NCCC[C@H](NC(=O)[C@@H](NC(=O)C(Cc1ccc(O)cc1)NC(=O)CCc1ccccc1)C(c1ccccc1)c1ccccc1)C(=O)c1nc2ccccc2s1 (single isomer, unassigned)	340 nM	1380 nM	4	–	–
N=C(N)NCCC[C@H](NC(=O)[C@H](Cc1cscn1)NC(=O)C(Cc1ccc(O)cc1)NC(=O)[C@@H](N)Cc1ccc(O)cc1)C(=O)c1nc2ccccc2s1 (single isomer, unassigned)	13 nM	20 nM	2	–	–
N=C(N)NCCC[C@H](NC(=O)[C@H](Cc1c[nH]c2ccccc12)NC(=O)C(Cc1ccc(O)cc1)NC(=O)[C@@H](N)Cc1ccc(O)cc1)C(=O)c1nc2ccccc2s1 (single isomer, unassigned)	3.1 nM	5.6 nM	2	–	–
